One compound from ChEMBL document CHEMBL4706752 (ACS Med Chem Lett, 2021) can be followed below.

Data set [1] can be described thus: Protein binding in human serum assessed as fraction unbound. The data set is classed as ADME, cell-free. To be noted: read-out: PB.
For data set [2], the target named is Cytochrome P450 3A4 (Homo sapiens, UniProt P08684). In words: Inhibition of CYP3A4 (unknown origin). The class given is ADME.
Data set [3] in a line: AUC in Sprague-Dawley rat at 2 mg/kg, iv. The class given is ADME, organism-based. Details: dose 2 mg/kg. To be noted: in vivo.
Data set [4] is described as follows: Cmax in Balb/c mouse at 4 mg/kg, po. The data set is classed as ADME, organism-based. Details: route oral, dose 4 mg/kg. To be noted: in vivo.
Data set [5] can be described thus: Cmax in dog at 2 mg/kg, po. The class given is ADME, organism-based, Canis lupus familiaris. Details: route oral, dose 2 mg/kg. To be noted: in vivo.
Data set [6] deals with Mus musculus. In words: Suppression of ear thickness in C57BL/6 mouse model of IL-23 induced acanthosis model of psoriasis assessed as AUC of %change in ear thickness at 10 mg/kg, po BID for 10 days measured every other day. The data set is classed as functional. The following applies: time 10 day.
The subject of data set [7] is Mus musculus. In words: Antiinflammatory activity in DBA/1J mouse model of collagen-induced arthritis assessed as reduction in arthritic score at 5 to 20 mg/kg, po dosed twice daily for 21 days. The data set is classed as functional, organism-based. To be noted: dose 5-20 mg/kg, time 21.0 day.
Data set [8] can be described thus: Decrease in LCN2 gene expression in C57BL/6 mouse model of IL-23 induced acanthosis model of psoriasis at 20 mg/kg, po BID for 10 days by RT-PCR analysis. The data set is classed as functional. The following applies: C57BL/6, po, 240 h, time 10 day.
Data set [9] deals with T1, Nuclear receptor subfamily 1 group I member 2 (Homo sapiens, UniProt O75469).
T1 sequence (O75469 whole entry): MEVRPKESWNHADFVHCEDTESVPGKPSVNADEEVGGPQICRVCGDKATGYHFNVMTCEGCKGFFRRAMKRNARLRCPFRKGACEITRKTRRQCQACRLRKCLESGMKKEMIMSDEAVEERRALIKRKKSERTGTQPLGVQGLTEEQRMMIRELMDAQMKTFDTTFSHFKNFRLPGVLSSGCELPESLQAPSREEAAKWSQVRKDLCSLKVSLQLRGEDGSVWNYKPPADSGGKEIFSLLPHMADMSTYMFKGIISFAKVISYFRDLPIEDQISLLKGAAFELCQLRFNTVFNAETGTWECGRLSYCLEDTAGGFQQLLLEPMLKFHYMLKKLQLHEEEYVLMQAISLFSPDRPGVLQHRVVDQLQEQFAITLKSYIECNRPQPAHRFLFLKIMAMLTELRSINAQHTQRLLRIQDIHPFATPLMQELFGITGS
In words: Inhibition of PXR (unknown origin).

Cytochrome P450 3A4, sequence (P08684 whole entry): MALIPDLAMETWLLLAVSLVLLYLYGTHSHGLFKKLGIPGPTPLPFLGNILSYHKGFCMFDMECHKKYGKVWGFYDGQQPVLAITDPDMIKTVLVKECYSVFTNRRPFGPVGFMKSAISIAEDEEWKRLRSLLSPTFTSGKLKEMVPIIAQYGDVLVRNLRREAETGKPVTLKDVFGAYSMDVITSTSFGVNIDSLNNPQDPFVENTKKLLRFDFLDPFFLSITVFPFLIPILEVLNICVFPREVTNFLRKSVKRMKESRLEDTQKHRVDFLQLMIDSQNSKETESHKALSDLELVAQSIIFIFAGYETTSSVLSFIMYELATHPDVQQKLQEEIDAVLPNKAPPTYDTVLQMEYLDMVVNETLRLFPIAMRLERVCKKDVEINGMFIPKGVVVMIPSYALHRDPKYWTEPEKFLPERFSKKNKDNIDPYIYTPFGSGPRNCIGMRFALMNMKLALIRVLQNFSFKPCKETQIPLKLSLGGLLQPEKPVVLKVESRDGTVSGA

Turning to `C[C@@](O)(CS(C)(=O)=O)C(=O)N[C@@H]1CC[C@@]2(S(=O)(=O)c3ccc(F)cc3)c3ccc(C(F)(C(F)(F)F)C(F)(F)F)nc3CC[C@@H]12`, in data set [1], the fraction unbound was 0.022. This compound came in with an IC50 in data set [2] greater than 20 µM. For the same compound, in [3], the AUC was found to be 26.3 µM·h. For the same compound, the Cmax in data set [4] was 2800 nM; in data set [5], 1700 nM. Also, the Activity is 66.5% in data set [6] and “Dose-dependent effect” in [7]. Besides, 20 mg/kg produced 82.9% inhibition in vivo in data set [8]. In data set [9], this compound registered an EC50 greater than 10 µM.
